# Columns and labels:
# HUVEC cells = assay: Induction of apoptosis, DNA fragmentation analysis; format: cell-based, human; settings: 16 hours
# Procedure: (§1) T84, CaCo-2 and HUVEC cells, respectively, were grown in 100 mm dishes for 7-9 days, culture media for HUVEC was EGM-2 (Clonetics, BioWhitaker Co.), until they reached semi-confluency. Cell monolayers were then treated for 12 hours (CaCo-2 and T84) and 16 hours (HUVEC), respectively, at the indicated concentrations of N,N,-diethyl-8,8-dipropyl-2-azaspiro[4,5]decane-2-propanamine dimaleate (Compound 1) in culture media. Cells were collected by trypsinization and the apoptotic DNA was isolated from these cells following the instructions of the DNA fragmentation analysis kit (Boehringer Mannheim Corp., Indianapolis, Ind.). The apoptotic DNA was evaluated using 1.5% agarose gel electrophoresis followed by staining with ethidium bromide. M denotes the lane containing molecular weight markers of DNA.
# CaCo-2 cells = assay: Induction of apoptosis, DNA fragmentation analysis; format: cell-based, human; settings: 12 hours
# Procedure: as §1
# T84 cells = assay: Induction of apoptosis, DNA fragmentation analysis; format: cell-based, human; settings: 12 hours
# Procedure: as §1
# Various Tumor Cell Lines = assay: NCI SRB tumor cell growth assay, summary over all cell lines; format: cell-based
# Procedure: (§2) An in vitro assay which tested the ability of N,N,-diethyl-8,8-dipropyl-2-azaspiro[4,5]decane-2-propanamine dimaleate (Compound 1) to inhibit the growth of known cancer cell lines was performed by the National Cancer Institute in accordance with standard procedures. See: Lin, Z. X., Hoult, J. R., and Raman, A. Sulphorhodamine B assay for measuring proliferation of a pigmented melanocyte cell line and its application to the evaluation of crude drugs used in the treatment of vitiligo. J Ethnopharmacol. 66: 141-150, 1999. Briefly, selected tumor cell lines were cultured in media containing five different concentrations of Compound 1. After 48 hours of continuous exposure, a sulforhodamine B (SRB) assay was used to estimate cell viability or growth via optical measurements.
# (§3) From the measurements, the following values were determined: 1) the concentration of Compound 1 at which a tumor cell growth inhibition of 50% (relative to control) occurs (GI50), 2) the concentration of Compound 1 at which no growth occurs (total growth inhibition, TGI), and 3) the concentration of Compound 1 at which the […] (LC 50). […] FIG. 6 illustrates, graphically, tumor cell growth as a function of Compound 1 concentration of the scanned tumor cell lines.
# [1] = system: chorioallantoic membrane (CAM); assay: Anti-angiogenesis CAM assay; format: in vivo, White Leghorn eggs; settings: ten eggs, 48 hours
# Procedure: The dosing was effected by pipetting 40 μl of the indicated solution onto a 13 mm round Thermanox® coverslip and allowing it to air dry. After the material appeared dry, the coverslip was placed onto the chorioallantoic membrane (CAM) of each egg insuring contact of the dried test article with the CAM. After dosing, the eggs were returned to the incubator for approximately 48 hours. Following the 48 hour exposure period, the eggs were removed from the incubator, observed for viability, and the exposed area under the coverslip was examined for loss of vasculature.
# HS 578T = assay: NCI SRB tumor cell growth assay, Breast Cancer; format: cell-based
# Procedure: as §2, §3
# caspase-3 = assay: Activation of caspases in T84 colon carcinoma cells; format: cell-based, human; settings: 10 hours
# Procedure: (§4) Activities of caspase-3 and caspase-9 were measured using […] assay kits (BioVision, CA). The procedure used was essentially the same as described in the manufacturer's instruction. Briefly, 7-day-old monolayers of T 84 cells in 100 mm dishes were treated with either vehicle (as control) or N,N,-diethyl-8,8-dipropyl-2-azaspiro[4,5]decane-2-propanamine dimaleate (Compound 1) at the indicated respective concentrations for 10 hours. After the treatment, cells were washed with PBS and the cell extracts were prepared by resuspending cells in 200 μl (˜10^8 cells) of lysis buffer provided in the kit. Cell debris was removed by centrifugation at 10,000×g for 30 min. Supernatants (50-100 μg of protein) were pre-incubated with 10 mM dithiothreitol, 50 mM HEPES, 10% sucrose, 0.1% CHAPS (pH 7.5) and the reaction was started with the addition of 100 μM of the appropriate substrate (DEVD-pNA for caspase-3 and LEHD-pNA for caspase-9). The assay plates (96-well) were incubated at 37° C. for 2 hours, and the yellow color resulting from the release of pNA was measured at 405 nm using an ELISA reader. Samples were run in triplicate and results were expressed as an average of three determinations.
# caspase-9 = assay: as above; format: cell-based, human; settings: 10 hours
# Procedure: as §4
Structure (SMILES),DNA laddering (apoptosis) (HUVEC cells),DNA laddering (apoptosis) (CaCo-2 cells),DNA laddering (apoptosis) (T84 cells),"Log10 LC50, MG_MID (Various Tumor Cell Lines)",Dead Eggs ([1]; Dose Per Egg 25 μg),Dead Eggs ([1]; Dose Per Egg 50 μg),Dead Eggs ([1]; Dose Per Egg 100 μg),Dead Eggs ([1]; Dose Per Egg 200 μg),Dead Eggs ([1]; Dose Per Egg 400 μg),Log10 TGI (HS 578T),caspase-3 activity (caspase-3),caspase-9 activity (caspase-9)
"CCCC1(CCC)CCC2(CCN(CCCN(CC)CC)C2)CC1.O=C(O)/C=C\C(=O)O.O=C(O)/C=C\C(=O)O [Compound 1, N,N,-diethyl-8,8-dipropyl-2-azaspiro[4,5]decane-2-propanamine dimaleate]",formation of DNA laddering in a dose-dependent manner,formation of DNA laddering in a dose-dependent manner,formation of DNA laddering in a dose-dependent manner,−5.06,0,0,4,3,7,−5.40,activation,activation
"O=C1CCC(N2C(=O)c3ccccc3C2=O)C(=O)N1 (stereo not shown) [Thalidomide, reference compound]",,,,,,,0,,,,,

# Source: US20070015780A1, “Method of treating cancer with azaspirane compositions” (priority 2003, published 2007)
